Values after ≈ are worked out from the molar mass of the structure shown. Like-named read-outs stand apart in the source and are kept apart here.
Assays:
[1] = tested on: Staphylococcus aureus ATCC 29213; details: S. aureus ATCC 29213, CLSI QC ranges shown in parentheses, cited from earlier work
[2] = tested on: Staphylococcus aureus ATCC 29213; test: Broth microdilution MIC assay, quality control strain (Example 2); type: cell-based; details: ATCC29213, S. aureus ATCC 29213 (QC), CAMHB
Procedure: (§1) Following incubation, colonies were harvested from these plates and cell suspensions prepared and frozen at −80° C. with a cryoprotectant. Prior to testing, N. gonorrhoeae isolates were streaked onto Chocolate Agar [Becton Dickinson, (BD), Sparks, Md.; Lot No. 922807]; Staphylococcus aureus ATCC 29213 tested for quality control (QC) purposes was streaked onto Trypticase Soy Agar with 5% Sheep Blood (TSA II; BD; Lot No. 9219399).
Cation-adjusted Mueller Hinton broth (CAMHB; BD; Lot No. 9019592) was used for MIC testing of S. aureus ATCC 29213 for QC purposes.
(§2) MIC values were determined using a broth microdilution procedure described by CLSI (1, 2). Automated liquid handlers (Multidrop 384, Labsystems, Helsinki, Finland; Biomek 2000 and Biomek FX, Beckman Coulter, Fullerton Calif.) were used to conduct serial dilutions and liquid transfers.
(§3) To prepare the drug mother plates, which would provide the serial drug dilutions for the replicate daughter plates, the wells of columns 2 through 12 of standard 96-well microdilution plates (Costar 3795) were filled with 150 μl of the designated diluent for each row of drug. The test articles and comparator compounds (300 μl at 100× the highest concentration to be tested) were dispensed into the appropriate wells in column 1. The Biomek 2000 was then used to make 2-fold serial dilutions in the mother plates from column 1 through column 11. The wells of column 12 contained no drug and served as the organism growth control wells for the assay.
(§4) The daughter plates were loaded with 190 μL per well of the appropriate test medium for the tested organism using the Multidrop 384. The daughter plates were completed on the Biomek FX instrument which transferred 2 μL of drug solution from each well of a mother plate to the corresponding well of each daughter plate in a single step. Daughter plates for the testing of anaerobes were allowed to pre-reduce in the Bactron II anaerobe chamber for 2 hr prior to inoculation.
A standardized inoculum of each test organism was prepared per CLSI methods (1, 2). The inoculum for each organism was dispensed into sterile reservoirs divided by length (Beckman Coulter), and the Biomek 2000 was used to inoculate the plates. Daughter plates were placed on the Biomek 2000 work surface in reverse orientation so that inoculation took place from low to high drug concentration. Anaerobic organisms were inoculated by hand in the Bactron II anaerobic chamber. Bacterial plates were then inoculated with 10 μL of the inoculum resulting in a final cell density of approximately 5×10^5 CFU/mL.
Plates were stacked 3 to 4 high, covered with a lid on the top plate and placed in plastic bags. […] The MIC was read and recorded as the lowest concentration of drug that inhibited visible growth of the organism.

[3] = tested on: Neisseria gonorrhoeae; test: Broth microdilution MIC assay, 30 isolates (Example 2); type: cell-based
Procedure: In this study, the in vitro spectrum of activity of CBD was determined against 30 isolates comprised of reference strains from the WHO, isolates from the CDC antibiotic resistance bank, and clinical isolates from the Micromyx (MMX) repository, with different resistance phenotypes. Assays were conducted following guidelines recommended by the Clinical and Laboratory Standards Institute (CLSI; 1, 2) with the exception that broth microdilution was used instead of agar dilution.
Stock solutions of all compounds were prepared on the day of testing using solvents recommended by CLSI. Stock solutions of all compounds were made at 101× the final testing concentration. CBD was supplied by Cerilliant (Round Rock, Tex.) as a 1 mg/mL methanolic solution which was stored at −20° C. after receipt. Prior to testing, using a 5 mL aliquot of the CBD methanolic solution, the methanol was dried off and the residual CBD was resuspended in 774 μL DMSO resulting in a 6.464 mg/mL solution.
The test organisms evaluated in this study consisted of Neisseria gonorrhoeae isolates from the Micromyx repository and reference isolates from the American Type Culture Collection (ATCC; Manassas, Va.), Centers for Disease Control and Prevention (CDC; Atlanta, Ga.) or the National Collection of Type Cultures (NCTC; Public Health England, Salisbury, UK). Upon initial receipt at Micromyx, the organisms were sub-cultured onto an appropriate agar medium.
as §1
For N. gonorrhoeae, a modified medium described by the ATCC as capable of supporting the growth of N. gonorrhoeae (Neisseria peptone medium) was used for the broth microdilution MIC assay. This medium contained 15 g Oxoid Special Peptone (Lot No. 1280296; Oxoid, Hampshire, UK), 1 g corn starch (Lot No. AD-13344-14; Ward's Science; Rochester, N.Y.), 5 g NaCl (Lot No. 57897; VWR, Radnor, Pa.), 4 g K2HPO4 (Lot No. SLBT7061; Sigma), and 1 g KH2PO4 (Lot No. SLBC1921V; Sigma). After autoclaving, the medium was centrifuged at 5,000×g for 10 min, the supernatant was passed through a 0.45 μm filter, and IsoVitaleX supplement (Lot No. 8323954; BD) was added at 1% (v/v).
as §2, §3, §4

[4] = 30 isolates of N. gonorrhoeae, broth microdilution, MIC distribution
[5] = 30 isolates, broth dilution assay, MIC distribution (Table 6)

## CC[C@H]1OC(=O)[C@H](C)[C@@H](O[C@H]2C[C@@](C)(OC)[C@@H](O)[C@H](C)O2)[C@H](C)[C@@H](O[C@@H]2O[C@H](C)C[C@H](N(C)C)[C@H]2O)[C@](C)(O)C[C@@H](C)CN(C)[C@H](C)[C@@H](O)[C@]1(C)O [AZI, azithromycin]
[1]
  CLSI QC range of MIC: 0.5 to 2 µg/mL
[1]; listed as Azithromycin
  CLSI QC range of MIC: (0.5-2)^1 μg/mL
[2]
  MIC: 0.5 µg/mL (≈ 0.668 µM)
[3]
  MIC: 0.25 µg/mL (≈ 0.334 µM)
[3]; 30 isolates of N. gonorrhoeae, broth microdilution
  MIC90: >8 µg/mL
[3]; [4]
  Number of isolates at MIC value 0.015 μg/mL: 0
  Number of isolates at MIC value 0.03 μg/mL: 0
  Number of isolates at MIC value 0.06 μg/mL: 2
  Number of isolates at MIC value 0.5 μg/mL: 2
  Number of isolates at MIC value 1 μg/mL: 1
  Number of isolates at MIC value 2 μg/mL: 2
  Number of isolates at MIC value 4 μg/mL: 1
  Number of isolates at MIC value 8 μg/mL: 1
  Number of isolates at MIC value >8 μg/mL: 4
[3]; [5]
  Number of isolates at MIC 0.08 μg mL^−1: 0
  Number of isolates at MIC ≤0.004 μg mL^−1: 0
[3]; Neisseria gonorrhoeae, ATCC49226, N. gonorrhoeae ATCC 49226 (QC), broth microdilution, read-out: MIC
  MIC: 0.25 µg/mL (≈ 0.334 µM)
[3]; Neisseria gonorrhoeae, N. gonorrhoeae CDC 0165 (CIP-R, AZI MIC 1), broth microdilution, read-out: MIC
  MIC: 1 µg/mL (≈ 1.34 µM)
[3]; Neisseria gonorrhoeae, N. gonorrhoeae CDC 0166 (CIP-R, AZI MIC 1), broth microdilution, read-out: MIC
  MIC: 0.5 µg/mL (≈ 0.668 µM)
[3]; Neisseria gonorrhoeae, N. gonorrhoeae CDC 0167 (CIP-S, AZI MIC 8), broth microdilution, read-out: MIC
  MIC: > 8 µg/mL
[3]; Neisseria gonorrhoeae, N. gonorrhoeae CDC 0172 (CIP-R, AZI MIC 0.5), broth microdilution, read-out: MIC
  MIC: 0.25 µg/mL (≈ 0.334 µM)
[3]; Neisseria gonorrhoeae, N. gonorrhoeae CDC 0175 (CIP-S, AZI MIC 16), broth microdilution, read-out: MIC
  MIC: > 8 µg/mL
[3]; Neisseria gonorrhoeae, N. gonorrhoeae CDC 0177 (CIP-S, AZI MIC 2), broth microdilution, read-out: MIC
  MIC: 2 µg/mL (≈ 2.67 µM)
[3]; Neisseria gonorrhoeae, N. gonorrhoeae CDC 0181 (CIP-S, AZI MIC 256), broth microdilution, read-out: MIC
  MIC: > 8 µg/mL
[3]; Neisseria gonorrhoeae, N. gonorrhoeae CDC 0194 (CRO-NS, CIP-S, AZI MIC 0.5), broth microdilution, read-out: MIC
  MIC: 0.25 µg/mL (≈ 0.334 µM)
[3]; Neisseria gonorrhoeae, N. gonorrhoeae MMX 6921 (CIP-R), broth microdilution, read-out: MIC
  MIC: 8 µg/mL (≈ 10.7 µM)
[3]; Neisseria gonorrhoeae, N. gonorrhoeae MMX 6938 (CIP-S), broth microdilution, read-out: MIC
  MIC: 0.25 µg/mL (≈ 0.334 µM)
[3]; Neisseria gonorrhoeae, N. gonorrhoeae MMX 10409 (CIP-R), broth microdilution, read-out: MIC
  MIC: 0.25 µg/mL (≈ 0.334 µM)
[3]; Neisseria gonorrhoeae, N. gonorrhoeae MMX 10410 (CIP-S), broth microdilution, read-out: MIC
  MIC: 0.12 µg/mL (≈ 0.16 µM)
[3]; Neisseria gonorrhoeae, N. gonorrhoeae MMX 10447 (CIP-S), broth microdilution, read-out: MIC
  MIC: 0.06 µg/mL (≈ 0.0801 µM)
[3]; Neisseria gonorrhoeae, N. gonorrhoeae MMX 10450 (CIP-S), broth microdilution, read-out: MIC
  MIC: 0.12 µg/mL (≈ 0.16 µM)
[3]; Neisseria gonorrhoeae, N. gonorrhoeae MMX 10452 (CIP-R), broth microdilution, read-out: MIC
  MIC: 0.12 µg/mL (≈ 0.16 µM)
[3]; Neisseria gonorrhoeae, N. gonorrhoeae MMX 10454 (CIP-R), broth microdilution, read-out: MIC
  MIC: 0.12 µg/mL (≈ 0.16 µM)
[3]; Neisseria gonorrhoeae, NCTC13477, N. gonorrhoeae NCTC 13477 (WHO F; CIP-S, AZI MIC […]), broth microdilution, read-out: MIC
  MIC: 0.06 µg/mL (≈ 0.0801 µM)
[3]; Neisseria gonorrhoeae, NCTC13478, N. gonorrhoeae NCTC 13478 (WHO G; CIP-I, AZI MIC […]), broth microdilution, read-out: MIC
  MIC: 0.25 µg/mL (≈ 0.334 µM)
[3]; Neisseria gonorrhoeae, NCTC13479, N. gonorrhoeae NCTC 13479 (WHO K; CIP-R, AZI MIC […]), broth microdilution, read-out: MIC
  MIC: 0.25 µg/mL (≈ 0.334 µM)
[3]; Neisseria gonorrhoeae, NCTC13480, N. gonorrhoeae NCTC 13480 (WHO L; CIP-R, AZI MIC 0.5), broth microdilution, read-out: MIC
  MIC: 0.25 µg/mL (≈ 0.334 µM)
[3]; Neisseria gonorrhoeae, NCTC13481, N. gonorrhoeae NCTC 13481 (WHO M; CIP-R, AZI MIC […]), broth microdilution, read-out: MIC
  MIC: 0.12 µg/mL (≈ 0.16 µM)
[3]; Neisseria gonorrhoeae, NCTC13482, N. gonorrhoeae NCTC 13482 (WHO N; CIP-R, AZI MIC […]), broth microdilution, read-out: MIC
  MIC: 0.12 µg/mL (≈ 0.16 µM)
[3]; Neisseria gonorrhoeae, NCTC13483, N. gonorrhoeae NCTC 13483 (WHO O; CIP-S, AZI MIC […]), broth microdilution, read-out: MIC
  MIC: 0.25 µg/mL (≈ 0.334 µM)
[3]; Neisseria gonorrhoeae, NCTC13484, N. gonorrhoeae NCTC 13484 (WHO P; CIP-S, AZI MIC 4), broth microdilution, read-out: MIC
  MIC: 4 µg/mL (≈ 5.34 µM)
[3]; Neisseria gonorrhoeae, NCTC13817, N. gonorrhoeae NCTC 13817 (WHO U; CIP-S, AZI MIC 4), broth microdilution, read-out: MIC
  MIC: 2 µg/mL (≈ 2.67 µM)
[3]; Neisseria gonorrhoeae, NCTC13818, N. gonorrhoeae NCTC 13818 (WHO V; CIP-R, AZI MIC >256), broth microdilution, read-out: MIC
  MIC: > 8 µg/mL
[3]; Neisseria gonorrhoeae, NCTC13819, N. gonorrhoeae NCTC 13819 (WHO W; CIP-R, AZI MIC 0.5), broth microdilution, read-out: MIC
  MIC: 0.25 µg/mL (≈ 0.334 µM)
[3]; Neisseria gonorrhoeae, NCTC13820, N. gonorrhoeae NCTC 13820 (WHO X; CRO-NS, CIP-R, AZI MIC 0.5), broth microdilution, read-out: MIC
  MIC: 0.25 µg/mL (≈ 0.334 µM)
[3]; Neisseria gonorrhoeae, NCTC13821, N. gonorrhoeae NCTC 13821 (WHO Y; CIP-R, AZI MIC 1), broth microdilution, read-out: MIC
  MIC: 0.5 µg/mL (≈ 0.668 µM)
[3]; Neisseria gonorrhoeae, 30 isolates of N. gonorrhoeae, broth microdilution, read-out: MIC50
  MIC50: 0.25 µg/mL (≈ 0.334 µM)
[3]; Neisseria gonorrhoeae, 30 isolates of N. gonorrhoeae, broth microdilution, read-out: MIC90
  MIC90: > 8 µg/mL
[3]; Neisseria gonorrhoeae, 30 isolates of N. gonorrhoeae, broth microdilution, read-out: MIC Mode
  MIC: 0.25 µg/mL (≈ 0.334 µM)
